From patent US20130261108A1, “COMPOSITIONS AND METHODS FOR MODULATING FARNESOID X RECEPTORS” (IRM LLC, priority 2010, published 2013)

Target: T1, human Farnesoid X Receptor (FXR) ligand binding domain (Homo sapiens, UniProt Q96RI1)
T1 construct: purchased Invitrogen
T1 sequence (Q96RI1 193-472 isoform Q96RI1-2): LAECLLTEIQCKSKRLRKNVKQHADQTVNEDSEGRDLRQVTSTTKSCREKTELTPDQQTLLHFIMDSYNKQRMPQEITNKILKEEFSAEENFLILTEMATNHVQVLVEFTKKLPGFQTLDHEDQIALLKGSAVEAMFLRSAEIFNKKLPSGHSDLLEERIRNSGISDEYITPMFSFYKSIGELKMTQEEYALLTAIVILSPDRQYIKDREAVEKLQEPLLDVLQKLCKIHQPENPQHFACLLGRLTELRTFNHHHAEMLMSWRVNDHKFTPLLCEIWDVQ
Experiment: Human GST-FXR LBD co-activator interaction assay (FXR HTRF assay)
Format: biochemical
Conditions: GST-FXR LBD with biotin-labeled SRC-1 peptide, FRET/HTRF, 2.5 hours at room temperature; response relative to GW4064; read-out: FXR coactivator interaction assay (HTRF) (EC50)
Description: Human GST-FXR LBD Co-Activator Interaction Assay.
The FXR HTRF assay is a biochemical assay measuring the interaction between FXR and a coactivator protein (SRC1). The ligand-induced interaction with a coactivator protein is a critical step in transcriptional activation by FXR. Thus, this is an assay designed to measure FXR agonist activity of compounds.
The ligand-dependent interaction between GST-FXR LBD and a peptide derived from Steroid Receptor Coactivator-1 (SRC-1) was monitored by Fluorescence Resonance Energy Transfer (FRET). […] Test compounds (in DMSO solution) and detection reagents (anti-GST-Cryptate labeled antibody and Streptavidin-XL665 conjugate; CisBio) were added in assay buffer containing 50 mM KF. Plates are incubated at room temperature in the dark for 2.5 hours before reading on an Envision (PerkinElmer) at 665 nm and 590 nm.
A negative control (without Streptavidin-XL665) was run with each assay and represented the background fluorescence. A reference FXR agonist, GW4064, was included in each experiment as positive control. The efficacy of each test compound was compared to that of GW4064. At each concentration, the relative activity of the test compound was expressed as Response %=(Rsample−RDMSO)/(Rpositive−RDMSO), where Rsample is the HTRF response (expressed in Delta F %) for the test compound, Rpositive is the maximal response for GW4064 at saturating concentrations, and RDMSO is the response for DMSO control. The EC50 values were calculated using GraphPad Prism (GraphPad Software) using non-linear regression curve fit (log(agonist) vs. response−variable slope (four parameters)).

| EC50 [nM] | SMILES |
| --- | --- |
| 57 | O=C(O)c1ccc2nc(N3CCC(OCc4c(-c5c(F)cccc5Cl)noc4C4CC4)CC3)sc2c1 [Example 2-12B, 2-(4-{[3-(2-chloro-6-fluorophenyl)-5-cyclopropyl-1,2-oxazol-4-yl]methoxy}piperidin-1-yl)-1,3-benzothiazole-6-carboxylic acid] |
| 75 | COc1cccc(C(F)(F)F)c1-c1noc(C2CC2)c1COC1CCN(c2nc3ccc(C(=O)O)cc3s2)CC1 [Example 2-7B, 2-[4-({5-cyclopropyl-3-[2-methoxy-6-(trifluoromethyl)phenyl]-1,2-oxazol-4-yl}methoxy)piperidin-1-yl]-1,3-benzothiazole-6-carboxylic acid] |
| 44 | O=C(O)c1ccc2nc(N3CCC(OCc4c(C5CCCCC5C(F)(F)F)noc4C4CC4)CC3)sc2c1 (centres unmarked) [Example 5, 2-[4-({5-cyclopropyl-3-[2-(trifluoromethyl)cyclohexyl]-1,2-oxazol-4-yl}methoxy)piperidin-1-yl]-1,3-benzothiazole-6-carboxylic acid] |
| 154 | Fc1cccc(Cl)c1-c1noc(C2CC2)c1COC1CCN(c2nc3ccc(-c4nn[nH]n4)cc3s2)CC1 [Example 7-6, 2-(4-{[3-(2-chloro-6-fluorophenyl)-5-cyclopropyl-1,2-oxazol-4-yl]methoxy}piperidin-1-yl)-6-(2H-1,2,3,4-tetrazol-5-yl)-1,3-benzothiazole] |
| 246 | O=C(O)c1ccc2nc(N3CCC(OCc4c(C5CCCCC5)noc4C4CC4)CC3)sc2c1 [Example 2-15, 2-{4-[(3-cyclohexyl-5-cyclopropyl-1,2-oxazol-4-yl)methoxy]piperidin-1-yl}-1,3-benzothiazole-6-carboxylic acid] |
| 17 | O=C(O)c1cc(F)c2nc(N3CCC(OCc4c(-c5ccccc5OC(F)(F)F)noc4C4CC4)CC3)sc2c1 [Example 1-3, 2-(4-((5-cyclopropyl-3-(2-(trifluoromethoxy)phenyl)isoxazol-4-yl)methoxy)piperidin-1-yl)-4-fluorobenzo[d]thiazole-6-carboxylic acid] |
| 2420 | CCOC(=O)c1ccc2nc(N3CCC(OCc4c(-c5ccccc5OC(F)F)noc4C4CC4)CC3)sc2c1 [Example 2-8A, ethyl 2-[4-({5-cyclopropyl-3-[2-(difluoromethoxy)phenyl]-1,2-oxazol-4-yl}methoxy)piperidin-1-yl]-1,3-benzothiazole-6-carboxylate] |
| 557 | CCOC(=O)c1ccc2nc(N3CCC(OCc4c(-c5c(F)cccc5Cl)noc4C4CC4)CC3)sc2c1 [Example 2-11A, ethyl 2-(4-{[3-(2-chloro-6-fluorophenyl)-5-cyclopropyl-1,2-oxazol-4-yl]methoxy}piperidin-1-yl)-1,3-benzothiazole-6-carboxylate] |
| 86 | O=C(O)c1ccc2nc(N3CCC(OCc4c(-c5ccccc5C(F)(F)F)noc4C4CC4)CC3)sc2c1 [Example 2-5B, 2-[4-({5-cyclopropyl-3-[2-(trifluoromethyl)phenyl]-1,2-oxazol-4-yl}methoxy)piperidin-1-yl]-1,3-benzothiazole-6-carboxylic acid] |
| 98 | CC1(c2onc(-c3ccccc3OC(F)(F)F)c2COC2CCN(c3nc4ccc(C(=O)O)cc4s3)CC2)CC1 [Example 2-2B, 2-(4-{[5-(1-methylcyclopropyl)-3-[2-(trifluoromethoxy)phenyl]-1,2-oxazol-4-yl]methoxy}piperidin-1-yl)-1,3-benzothiazole-6-carboxylic acid] |
| 20 | O=C(O)CNC(=O)c1ccc2nc(N3CCC(OCc4c(-c5ccccc5OC(F)(F)F)noc4C4CC4)CC3)sc2c1 [Example 8-1B, 2-(2-(4-((5-cyclopropyl-3-(2-(trifluoromethoxy)phenyl)isoxazol-4-yl)methoxy)piperidin-1-yl)benzo[d]thiazole-6-carboxamido)acetic acid] |
| 132 | N#Cc1ccc2nc(N3CCC(OCc4c(-c5c(Cl)cccc5Cl)noc4C4CC4)CC3)sc2c1 [Example 6-1, 2-(4-((5-cyclopropyl-3-(2,6-dichlorophenyl)isoxazol-4-yl)methoxy)piperidin-1-yl)benzo[d]thiazole-6-carbonitrile] |
| 5 | O=C(O)c1cc(OC(F)(F)F)c2nc(N3CCC(OCc4c(-c5ccccc5OC(F)(F)F)noc4C4CC4)CC3)sc2c1 [Example 2-4, 2-[4-({5-cyclopropyl-3-[2-(trifluoromethoxy)phenyl]-1,2-oxazol-4-yl}methoxy)piperidin-1-yl]-4-(trifluoromethoxy)-1,3-benzothiazole-6-carboxylic acid] |
| 89 | O=C(O)c1ccc2nc(N3CCC(OCc4c(COc5c(Cl)cccc5Cl)noc4C4CC4)CC3)sc2c1 [Example 10-1, 2-(4-{[5-cyclopropyl-3-(2,6-dichlorophenoxymethyl)-1,2-oxazol-4-yl]methoxy}piperidin-1-yl)-1,3-benzothiazole-6-carboxylic acid] |
| 198 | O=C(O)c1ccc2nc(N3CCC(OCc4c(-c5c(Cl)cccc5C(F)(F)F)noc4C4CC4)CC3)sc2c1 [Example 2-6B, 2-[4-({3-[2-chloro-6-(trifluoromethyl)phenyl]-5-cyclopropyl-1,2-oxazol-4-yl}methoxy)piperidin-1-yl]-1,3-benzothiazole-6-carboxylic acid] |
| 433 | FC(F)(F)Oc1ccccc1-c1noc(C2CC2)c1COC1CCN(c2nc3ccc(-c4nn[nH]n4)cc3s2)CC1 [Example 7-3, 2-[4-({5-cyclopropyl-3-[2-(trifluoromethoxy)phenyl]-1,2-oxazol-4-yl}methoxy)piperidin-1-yl]-6-(2H-1,2,3,4-tetrazol-5-yl)-1,3-benzothiazole] |
| 357 | O=C(O)c1ccc2nc(N3CCC(OCc4c(CC5CCCCC5)noc4C4CC4)CC3)sc2c1 [Example 10-2, 2-(4-{[3-(cyclohexylmethyl)-5-cyclopropyl-1,2-oxazol-4-yl]methoxy}piperidin-1-yl)-1,3-benzothiazole-6-carboxylic acid] |
| 64 | O=C(O)c1ccc2nc(N3CCC(OCc4c(C5CCCCC5C(F)(F)F)noc4C4CC4)CC3)sc2c1 (single isomer, unassigned) [5 (Diastereomer B)] |
| 929 | CCOC(=O)c1ccc2nc(N3CCC(OCc4c(-c5ccccc5OC(F)(F)F)noc4C4CC4)CC3)sc2c1 [Example 1-1A, Ethyl 2-(4-((5-cyclopropyl-3-(2-(trifluoromethoxy)phenyl)isoxazol-4-yl)methoxy)piperidin-1-yl)benzo[d]thiazole-6-carboxylate] |
| 456 | COC(=O)CNC(=O)c1ccc2nc(N3CCC(OCc4c(-c5ccccc5OC(F)(F)F)noc4C4CC4)CC3)sc2c1 [Example 8-1A, Methyl 2-(2-(4-((5-cyclopropyl-3-(2-(trifluoromethoxy)phenyl)isoxazol-4-yl)methoxy)piperidin-1-yl)benzo[d]thiazole-6-carboxamido)acetate] |
| 1180 | CCOC(=O)c1ccc2nc(N3CCC(OCc4c(-c5ccccc5OC(F)(F)F)noc4C4(C)CC4)CC3)sc2c1 [Example 2-2A, ethyl 2-(4-{[5-(1-methylcyclopropyl)-3-[2-(trifluoromethoxy)phenyl]-1,2-oxazol-4-yl]methoxy}piperidin-1-yl)-1,3-benzothiazole-6-carboxylate] |
| 164 | NC(=O)c1ccc2nc(N3CCC(OCc4c(-c5ccccc5OC(F)(F)F)noc4C4CC4)CC3)sc2c1 [Example 7-2, 2-[4-({5-cyclopropyl-3-[2-(trifluoromethoxy)phenyl]-1,2-oxazol-4-yl}methoxy)piperidin-1-yl]-1,3-benzothiazole-6-carboxamide] |
| 396 | CCOC(=O)c1ccc2nc(N3CCC(OCc4c(-c5c(Cl)cccc5C(F)(F)F)noc4C4CC4)CC3)sc2c1 [Example 2-6A, ethyl 2-[4-({3-[2-chloro-6-(trifluoromethyl)phenyl]-5-cyclopropyl-1,2-oxazol-4-yl}methoxy)piperidin-1-yl]-1,3-benzothiazole-6-carboxylate] |
